According to patent US8697369B2, “Method for screening a test substance for activating a receptor associated with FGF 21 activity” (National Institute of Advanced Industrial Science and …, priority 2007, dated 2014):
“Also recorded” adds a separate entry of the source.

Experiments:
[1] = molecular target: T1, FGFR1c/betaKlotho-expressing BaF3 cells (Mus musculus, UniProt P16092+Q99N32); assay: DNA synthesis (thymidine incorporation) in FGFR1c/betaKlotho-expressing BaF3 cells; format: cell-based
T1 construct: the entire-length cDNA of mouse FGFR1c had been cloned; the entire-length cDNA of mouse betaKlotho was cloned into an animal cell expression vector; expressed in transfected cells; host or cells: BaF3 (mouse pro-B) cells
Experimental: (§1) A commonly used measurement method is a cell growth stimulating activity measurement method described in Ornitz, D. M., Xu, J., Colvin, J. S., McEwen, D. G., MacArthur, C. A., Coulier, F., Gao, G. and Goldfarb, M. (1996) Receptor specificity of the fibroblast growth factor family. J Biol Chem, 271, 15292-15297. The summary thereof is as follows. FGF used as a measurement target is added to a culture solution containing a cultured cell having an FGF receptor on the surface thereof, and the obtained mixture is cultured for a certain period of time. Thereafter, a labeled thymidine is added to the culture solution, followed by further culture for a certain period of time. By measuring the amount of the labeled thymidine incorporated into polymeric DNA during the culture, the degree of FGF to activate DNA synthesis is evaluated. (In the present invention as well, this method was adopted when the activity of FGF21 was measured in Examples 4, 5, 6, 8, 9, and 10.)
FGFR1c-expressing BaF3 cells and FGFR1c- and betaKlotho-expressing BaF3 cells were prepared as follows. In the case of FGFR1c-expressing BaF3 cells, an animal cell expression vector into which the entire-length cDNA of mouse FGFR1c had been cloned (described in Ornitz, D. M., Xu, J., Colvin, J. S., McEwen, D. G., MacArthur, C. A., Coulier, F., Gao, G. and Goldfarb, M. (1996) Receptor specificity of the fibroblast growth factor family. J Biol Chem, 271, 15292-15297.) was introduced into BaF3 cells by an electroporation method. The cells were then cultured in the presence of G418 for approximately 2 weeks, so as to obtain drug-resistant clones. Thereafter, such clones were obtained as those capable of growing as a result of FGF1 stimulation. In the case of both FGFR1c- and betaKlotho-expressing BaF3 cells, the entire-length cDNA of mouse betaKlotho was cloned into an animal cell expression vector, and it was then introduced into the FGFR1c-expressing BaF3 cells. The cells were then cultured in the presence of Puromycin and G418 for approximately 2 weeks, so as to obtain drug-resistant clones. In the case of only betaKlotho-expressing BaF3 cells, a betaKlotho-expressing vector was introduced into BaF3 cells, and Puromycin-resistant clones were then obtained. The BaF3 cells, into which the aforementioned genes had been each introduced, were maintained in an RPMI1640 medium containing 10% FBS and interleukin 3 (IL3, supplied by adding a 5% condition medium of WEHI-3 cells). For the growth stimulation experiment, the cells were washed with an RPMI1640 medium, and they were then suspended in an RPMI1640 medium containing 10% FBS, followed by inoculating the suspension on a culture plate. Thereafter, the resultant cells were used.
Immediately after inoculation, BaF3 cells that had expressed each clone and only FGFR1c were stimulated by addition of FGF21 (open bar) or PBS (filled bar) used as a control in the presence of heparin, and they were then cultured for 42 hours. Thereafter, tritium-labeled thymidine was added to the culture solution, and the culture was further continued for 6 hours. Thereafter, the amount of thymidine incorporated into the cells was measured, so as to evaluate DNA synthesis. A DNA synthesis value obtained when the cells were not stimulated with FGF21 was defined as 1, and the ratio of a DNA synthesis value obtained by stimulating with FGF21 to the aforementioned DNA synthesis value was expressed using magnification. […]

[2] = tested on: FGFR3c/betaKlotho-expressing BaF3 cells; assay: DNA synthesis (thymidine incorporation) in FGFR3c/betaKlotho-expressing BaF3 cells; format: cell-based, mouse
Experimental: as §1
(§2) Whether other receptor molecules can also act as such FGF receptors was examined. An expression vector containing each FGFR (FGFR1b, R1c, R2b, R2c, R3b, R3c, and R4) (described in Ornitz, D. M., Xu, J., Colvin, J. S., McEwen, D. G., MacArthur, C. A., Coulier, F., Gao, G. and Goldfarb, M. (1996) Receptor specificity of the fibroblast growth factor family. J Biol Chem, 271, 15292-15297.) was introduced into betaKlotho-expressing BaF3 cells, so as to obtain clones that were resistant to Puromycin and G418, thereby obtaining FGFR/betaKlotho-expressing cells. Such cells were stimulated with FGF21, and the amount of DNA synthesized was measured.
The activity of FGF21 to stimulate the DNA synthesis of BaF3 cells that had expressed each FGFR (FGFR1c, R2c, F3c, and R4) as well as betaKlotho was compared with the activity of FGF19, which was evolutionally relative to FGF21. By procedures opposite to those of Example 5, namely, an expression vector containing betaKlotho was introduced into BaF3 cells that had expressed each type of FGFR, so as to obtain Puromycin- and G418-resistant clones, thereby obtaining FGFR/betaKlotho-expressing cells. The cells were stimulated with FGF21, FGF19, and FGF1 in the presence of heparin, while changing the amounts of FGF21, FGF19, and FGF1, as shown in the figure, and the amount of DNA synthesized was then measured.

[3] = molecular target: T2, betaKlotho-expressing BaF3 cells (Mus musculus, UniProt Q99N32); assay: DNA synthesis (thymidine incorporation) in BaF3 cells expressing only betaKlotho; format: cell-based; settings: presence or absence of heparin
T2 construct: the entire-length cDNA of mouse betaKlotho was cloned into an animal cell expression vector; expressed in transfected cells; host or cells: BaF3 (mouse pro-B) cells
T2 sequence (Q99N32 1-1043): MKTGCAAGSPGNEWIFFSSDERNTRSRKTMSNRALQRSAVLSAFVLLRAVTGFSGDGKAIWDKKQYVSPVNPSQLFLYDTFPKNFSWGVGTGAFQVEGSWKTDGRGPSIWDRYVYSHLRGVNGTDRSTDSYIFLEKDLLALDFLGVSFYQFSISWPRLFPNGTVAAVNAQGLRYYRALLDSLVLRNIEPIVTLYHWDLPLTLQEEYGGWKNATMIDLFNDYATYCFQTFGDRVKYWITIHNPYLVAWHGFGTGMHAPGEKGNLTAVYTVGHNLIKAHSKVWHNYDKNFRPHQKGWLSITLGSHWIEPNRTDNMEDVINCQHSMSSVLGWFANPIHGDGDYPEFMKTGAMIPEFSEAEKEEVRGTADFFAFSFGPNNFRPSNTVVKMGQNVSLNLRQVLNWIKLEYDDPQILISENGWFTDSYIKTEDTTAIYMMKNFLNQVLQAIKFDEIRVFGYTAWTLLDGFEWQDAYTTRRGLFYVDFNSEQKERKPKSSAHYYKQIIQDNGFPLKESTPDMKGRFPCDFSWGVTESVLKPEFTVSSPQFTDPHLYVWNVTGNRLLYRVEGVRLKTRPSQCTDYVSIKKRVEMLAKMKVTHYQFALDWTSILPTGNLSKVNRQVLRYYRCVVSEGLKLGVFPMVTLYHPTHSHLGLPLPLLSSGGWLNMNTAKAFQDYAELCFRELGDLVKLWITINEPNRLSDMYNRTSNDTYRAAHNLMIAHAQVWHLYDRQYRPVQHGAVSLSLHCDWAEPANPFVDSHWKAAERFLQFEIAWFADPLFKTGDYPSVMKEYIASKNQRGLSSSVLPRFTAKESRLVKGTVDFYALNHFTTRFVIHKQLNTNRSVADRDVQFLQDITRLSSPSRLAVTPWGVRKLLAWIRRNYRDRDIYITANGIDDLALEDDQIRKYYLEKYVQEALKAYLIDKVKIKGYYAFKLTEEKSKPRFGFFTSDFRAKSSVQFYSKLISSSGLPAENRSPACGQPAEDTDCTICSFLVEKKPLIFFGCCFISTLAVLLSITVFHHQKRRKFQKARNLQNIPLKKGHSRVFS
Experimental: as §1, with “10.) […]” for “10.)”
Immediately after inoculation, BaF3 cells that had expressed each clone and only FGFR1c were stimulated by addition of FGF21 (open bar) or PBS (filled bar) used as a control in the presence of heparin, and they were then cultured for 42 hours. […] Thereafter, the amount of thymidine incorporated into the cells was measured, so as to evaluate DNA synthesis. […]

[4] = molecular target: T3, R1c/betaKlotho-expressing cells (Mus musculus, UniProt P16092+Q99N32); assay: Phosphorylation of FRS2 and MAPK (Western blotting) in R1c/betaKlotho-expressing cells; format: cell-based; settings: presence of heparin; 10 minutes stimulation
T3 construct: the entire-length cDNA of mouse FGFR1c had been cloned; the entire-length cDNA of mouse betaKlotho was cloned into an animal cell expression vector; expressed in transfected cells; host or cells: BaF3 (mouse pro-B) cells
Experimental: (§3) Each FGFR/betaKlotho-expressing cells obtained in Example 6 were stimulated with FGF, and the activated state (phosphorylated state) of a signaling molecule FRS2 (fibroblast growth factor receptor substrate 2) located downstream of FGFR, and that of MAPK (mitogen activated protein kinase; alias: ERK (extracellular signal-regulated kinase; in general, there are two types of ERKs, namely, ERK1 with a molecular weight of 44 kDa and ERK2 with a molecular weight of 42 kDa)), were analyzed. Different types of cells were stimulated with each FGF in the presence of heparin for 10 minutes, and a cell lysate was then prepared. Thereafter, the phosphorylated degree was evaluated by measuring it by a Western blotting method using a commercially available anti-phosphorylation FRS2 antibody or an anti-phosphorylation MAPK antibody.

[5] = tested on: FGFR4/betaKlotho-expressing cells; assay: Phosphorylation of FRS2 and MAPK (Western blotting) in FGFR4/betaKlotho-expressing cells; format: cell-based, mouse; settings: presence of heparin; 10 minutes stimulation
Experimental: as §3

[6] = tested on: R3c/betaKlotho-expressing cells; assay: Phosphorylation of FRS2 and MAPK (Western blotting) in R3c/betaKlotho-expressing cells; format: cell-based, mouse; settings: presence of heparin; 10 minutes stimulation
Experimental: as §3

[7] = molecular target: T4, FGFR2c/betaKlotho-expressing BaF3 cells (Mus musculus, UniProt P21803+Q99N32); assay: DNA synthesis (thymidine incorporation) in FGFR2c/betaKlotho-expressing BaF3 cells; format: cell-based; settings: BaF3 cells expressing FGFR2c and betaKlotho; presence of heparin
T4 construct: the entire-length cDNA of mouse betaKlotho was cloned into an animal cell expression vector; expressed in transfected cells; host or cells: BaF3 (mouse pro-B) cells
Experimental: as §1, §2
(§4) The activity of FGF21 to stimulate the DNA synthesis of BaF3 cells that had expressed each FGFR (FGFR1c, R2c, F3c, and R4) as well as betaKlotho was compared with the activity of FGF19, which was evolutionally relative to FGF21. […] The cells were stimulated with FGF21, FGF19, and FGF1 in the presence of heparin, while changing the amounts of FGF21, FGF19, and FGF1, as shown in the figure, and the amount of DNA synthesized was then measured.

[8] = molecular target: T5, FGFR2c/betaKlotho-expressing cells (Mus musculus, UniProt P21803+Q99N32); assay: Phosphorylation of FRS2 and MAPK (Western blotting) in FGFR2c/betaKlotho-expressing cells; format: cell-based; settings: presence of heparin; 10 minutes stimulation
T5 construct: the entire-length cDNA of mouse betaKlotho was cloned into an animal cell expression vector; expressed in transfected cells; host or cells: BaF3 (mouse pro-B) cells
Experimental: as §3

[9] = tested on: FGFR4/betaKlotho-expressing BaF3 cells; assay: DNA synthesis (thymidine incorporation) in FGFR4/betaKlotho-expressing BaF3 cells; format: cell-based, mouse; settings: BaF3 cells expressing FGFR4 and betaKlotho; presence of heparin
Experimental: as §1, §2, §4

T1 sequence (P16092 22-822, one chain of several): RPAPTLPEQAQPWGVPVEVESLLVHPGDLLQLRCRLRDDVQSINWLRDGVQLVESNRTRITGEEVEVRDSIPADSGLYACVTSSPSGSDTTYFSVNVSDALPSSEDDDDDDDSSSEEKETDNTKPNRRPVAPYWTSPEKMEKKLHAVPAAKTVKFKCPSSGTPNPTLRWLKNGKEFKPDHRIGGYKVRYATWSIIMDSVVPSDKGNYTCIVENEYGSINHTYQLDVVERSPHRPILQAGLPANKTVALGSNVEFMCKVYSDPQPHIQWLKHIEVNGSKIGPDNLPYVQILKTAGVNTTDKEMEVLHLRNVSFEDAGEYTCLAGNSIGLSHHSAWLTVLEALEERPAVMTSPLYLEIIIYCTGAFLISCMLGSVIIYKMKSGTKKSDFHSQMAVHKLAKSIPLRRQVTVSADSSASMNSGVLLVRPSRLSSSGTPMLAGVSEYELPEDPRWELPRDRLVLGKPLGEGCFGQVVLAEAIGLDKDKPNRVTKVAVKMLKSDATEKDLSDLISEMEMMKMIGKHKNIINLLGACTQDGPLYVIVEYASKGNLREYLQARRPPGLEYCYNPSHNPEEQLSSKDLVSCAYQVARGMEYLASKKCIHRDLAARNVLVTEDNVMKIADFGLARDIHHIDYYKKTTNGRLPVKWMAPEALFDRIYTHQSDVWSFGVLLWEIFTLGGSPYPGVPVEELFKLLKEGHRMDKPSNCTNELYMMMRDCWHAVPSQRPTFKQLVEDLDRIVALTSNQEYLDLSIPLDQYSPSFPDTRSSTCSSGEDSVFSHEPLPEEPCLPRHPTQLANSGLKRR
Chain of FGFR3c/betaKlotho-expressing BaF3 cells (Q61851 21-369 limits assumed, one chain of several): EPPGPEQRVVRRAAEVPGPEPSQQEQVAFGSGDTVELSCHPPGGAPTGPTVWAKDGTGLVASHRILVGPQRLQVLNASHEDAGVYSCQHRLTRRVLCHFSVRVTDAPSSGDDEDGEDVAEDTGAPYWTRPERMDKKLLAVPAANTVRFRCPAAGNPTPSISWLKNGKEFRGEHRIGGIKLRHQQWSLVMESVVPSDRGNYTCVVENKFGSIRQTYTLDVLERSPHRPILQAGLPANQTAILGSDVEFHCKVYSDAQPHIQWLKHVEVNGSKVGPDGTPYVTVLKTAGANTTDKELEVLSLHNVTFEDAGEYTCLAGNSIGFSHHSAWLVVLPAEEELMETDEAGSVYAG
T3 sequence (P16092 22-822, one chain of several): as the sequence (P16092 22-822, one chain of several) above
Chain of R3c/betaKlotho-expressing cells (Q61851 21-369 limits assumed, one chain of several): as the sequence (Q61851 21-369 limits assumed, one chain of several) above
Chain of FGFR4/betaKlotho-expressing BaF3 cells (Q03142 17-366 limits assumed, one chain of several): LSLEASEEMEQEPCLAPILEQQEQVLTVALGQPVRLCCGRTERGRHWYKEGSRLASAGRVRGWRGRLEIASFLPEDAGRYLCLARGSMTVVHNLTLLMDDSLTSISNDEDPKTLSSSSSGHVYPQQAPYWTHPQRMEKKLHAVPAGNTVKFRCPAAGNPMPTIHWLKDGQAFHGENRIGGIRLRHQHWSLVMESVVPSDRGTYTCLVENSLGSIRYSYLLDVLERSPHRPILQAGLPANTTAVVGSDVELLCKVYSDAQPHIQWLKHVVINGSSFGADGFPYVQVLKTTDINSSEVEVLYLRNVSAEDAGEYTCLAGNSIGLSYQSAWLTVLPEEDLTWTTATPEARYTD
Chain of FGFR4/betaKlotho-expressing cells (Q03142 143-366 limits assumed, one chain of several): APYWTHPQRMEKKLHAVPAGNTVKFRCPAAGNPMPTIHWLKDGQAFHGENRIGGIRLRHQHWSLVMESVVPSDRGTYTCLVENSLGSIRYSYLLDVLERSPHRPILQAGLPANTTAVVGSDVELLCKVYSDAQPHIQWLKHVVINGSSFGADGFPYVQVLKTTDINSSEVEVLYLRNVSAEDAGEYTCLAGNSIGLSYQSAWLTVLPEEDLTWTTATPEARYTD
T5 sequence (P21803 22-821, one chain of several): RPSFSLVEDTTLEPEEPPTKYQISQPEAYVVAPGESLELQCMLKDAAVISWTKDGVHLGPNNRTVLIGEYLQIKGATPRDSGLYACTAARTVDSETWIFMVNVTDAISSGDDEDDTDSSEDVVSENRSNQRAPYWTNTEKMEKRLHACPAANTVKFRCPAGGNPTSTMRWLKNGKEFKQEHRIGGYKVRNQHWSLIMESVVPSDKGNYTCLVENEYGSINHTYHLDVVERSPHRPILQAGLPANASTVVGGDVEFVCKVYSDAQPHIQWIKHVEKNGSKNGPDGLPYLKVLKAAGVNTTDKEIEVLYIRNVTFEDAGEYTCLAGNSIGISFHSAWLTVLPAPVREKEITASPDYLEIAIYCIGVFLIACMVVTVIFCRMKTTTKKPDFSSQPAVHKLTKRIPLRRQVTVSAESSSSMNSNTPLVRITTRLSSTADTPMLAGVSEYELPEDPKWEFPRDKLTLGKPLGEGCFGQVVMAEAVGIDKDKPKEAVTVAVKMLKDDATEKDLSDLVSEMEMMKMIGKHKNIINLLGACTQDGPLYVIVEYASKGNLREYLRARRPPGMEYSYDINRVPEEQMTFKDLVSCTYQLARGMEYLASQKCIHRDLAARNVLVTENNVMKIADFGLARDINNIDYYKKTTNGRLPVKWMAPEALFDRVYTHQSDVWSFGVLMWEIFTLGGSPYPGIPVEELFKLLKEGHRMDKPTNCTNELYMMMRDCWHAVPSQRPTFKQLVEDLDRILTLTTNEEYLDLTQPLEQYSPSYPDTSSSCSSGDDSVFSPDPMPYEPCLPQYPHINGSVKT
T4 sequence (P21803 22-821, one chain of several): as above

Substance: heparin [reference compound]
- effect of heparin on the action of FGF21 (DNA synthesis) ([1]; FGFR1c/betaKlotho-expressing BaF3 cells stimulated with FGF21): increases the action of FGF21; also recorded: reactivity was increased
- effect of heparin on reactivity with FGF21 (DNA synthesis) ([2]; FGFR3c/betaKlotho-expressing BaF3 cells stimulated with FGF21): reactivity was increased

Substance: interleukin 3 [reference compound]
- DNA synthesis (thymidine incorporated into the cells) [3]: significantly grew

Substance: FGF19: FGF family member evolutionally relative to FGF21, used for comparison
- phosphorylation of FRS2 and MAPK [4]: significantly increase the phosphorylation
- DNA synthesis (thymidine incorporated into the cells) ([1]; BaF3 cells expressing FGFR1c and betaKlotho, presence or absence of heparin): strong activity
- phosphorylation of FRS2 and MAPK [5]: significantly increase the phosphorylation
- DNA synthesis (thymidine incorporated into the cells) ([2]; BaF3 cells expressing FGFR3c and betaKlotho): strong activity
- phosphorylation of FRS2 and MAPK [6]: significantly increase the phosphorylation
- DNA synthesis (thymidine incorporated into the cells) [7]: strong activity
- phosphorylation of FRS2 and MAPK [8]: significantly increase the phosphorylation
- DNA synthesis (thymidine incorporated into the cells) [9]: strong activity
